One series concerns the target T1, human V2 receptor (Homo sapiens, UniProt P30518).
T1 construct: A DNA fragment containing a human V2 receptor code region; expressed in transfected cells
As to the kind of experiment: cAMP production test in V2 receptor expression cell. The class given is cell-based. The following applies: for EC50: human V2 receptor expression cell, 30 minutes at room temperature, HTRF cAMP kit; for Emax: maximum reaction by 8-AVP assumed to be 100%. As for the experimental part: Pharmacological Test (1) Preparation of Human V2 Receptor Expression Cell
A DNA fragment containing a human V2 receptor code region was inserted into an expression vector of a vertebrate cell. The expression vector was genetically introduced into an animal cell to have the human V2 receptor express in the surface of the cell. Since the expression vector could express a neo gene which functions as a G418 resistance marker, it was cultured in a G418-containing medium, thereby selectively obtaining a human V2 receptor stable expression cell.
(2) cAMP Production Test in V2 Receptor Expression Cell
The human V2 receptor expression cell, which was prepared in the above described method, was recovered and resuspended into an incubation buffer (F-12 medium, 20 mM HEPES), and 5 μl of the cell was then divided into a 384-well plate with a density of 15,000 cells/well. 5 μl of a compound solution or an 8-AVP ((Arg^8)-vasopressin) solution, which was diluted with an assay buffer (F-12 medium, 20 mM HEPES, 1 mM IBMX), (total 10 μl/well) was added to each well (final concentration: 15,000 cells/well, 500 μM IBMX, 1% dimethyl sulfoxide). After incubation at room temperature for 30 minutes, a cAMP production amount was measured using a commercially available HTRF cAMP kit (Cisbio Inc.) according to the described protocol. Excel Fit was used in order to find EC50 and Emax values of the test compound.

A short description of the next series: Rat PK test. Format: in vivo. As to conditions: iv, male Sprague-Dawley rat, caudal vein administration, 0.5 mg/kg, plasma; for Vd: CLp multiplied by MRT, read-out: Vdss; for clearance: administration amount divided by AUC0-∞, read-out: CLp (converted). The method, then:
A male Sprague-Dawely (Crj: CD(SD)IGS: CHARLES RIVER LABORATORIES JAPAN, INC.) rat was used between 7 to 8 weeks of age as an experimental animal. A rat fasted for one night was used. A test compound was dissolved into DMSO, thereto were added PEG and physical saline to adjust a concentration to be 0.5 mg/mL (20/20/60, v/v/v), and the solution was administered to the caudal vein in a use amount of 0.5 mg/kg. A blood sample was taken with a syringe treated with heparin from the jugular vein with time from 6 to 8 hours after administration and the taken blood was centrifuged to obtain plasma. A plasma drug concentration was measured using LC/MS/MS. For the sample for the LC/MS/MS measurement, a supernatant obtained by adding an internal standard substance and acetonitrile to the plasma and then deproteinization was used. A PK parameter was analyzed by a non-compartment model. A clearance (CLp) was calculated by dividing an administration amount by AUC0-∞. A distribution volume (Vdss) was calculated by multiplying CLp by a mean retention time (MRT).

For a further series, the target named is T2, CYP3A4 (Homo sapiens, UniProt P08684).
T2 construct: human liver microsome with a protein concentration of 0.1 mg protein/mL; from tissue; host or cells: human liver microsomes
T2 sequence (P08684 whole entry): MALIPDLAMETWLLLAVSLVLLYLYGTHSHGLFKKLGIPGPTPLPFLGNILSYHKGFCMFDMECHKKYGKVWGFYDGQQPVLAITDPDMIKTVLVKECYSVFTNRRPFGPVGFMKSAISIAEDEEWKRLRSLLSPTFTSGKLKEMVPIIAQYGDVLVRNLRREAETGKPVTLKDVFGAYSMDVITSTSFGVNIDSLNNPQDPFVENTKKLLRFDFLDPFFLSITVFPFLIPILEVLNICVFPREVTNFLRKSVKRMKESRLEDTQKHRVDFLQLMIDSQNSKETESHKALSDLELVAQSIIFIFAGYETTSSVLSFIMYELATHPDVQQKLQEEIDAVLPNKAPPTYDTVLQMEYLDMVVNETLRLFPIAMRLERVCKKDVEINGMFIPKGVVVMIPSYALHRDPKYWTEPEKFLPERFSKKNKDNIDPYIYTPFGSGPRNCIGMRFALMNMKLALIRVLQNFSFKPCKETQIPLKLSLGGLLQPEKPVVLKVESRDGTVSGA
As to the kind of experiment: Test of inhibition of cytochrome P450 (3A4) enzyme. The class given is in vitro ADME. As to conditions: human liver microsome, midazolam 2.5 μM as substrate, test compound 0.21 to 50 μM, 37° C. 10 minutes. As for the experimental part: (4) Test of Inhibition of Cytochrome P450 (3A4) Enzyme
(§1) Using a 96 well plate, midazolam (2.5 μM) as a substrate, a test compound (0.21 to 50 μM), human liver microsome with a protein concentration of 0.1 mg protein/mL were added to a 0.1 M phosphoric acid buffer solution (pH=7.4), which contains 1.55 mM NADP^+, 3.3 mM glucose-6-phosphate, 3.3 mM MgCl2 and 0.4 Units/ml of glucose-6-phosphate dehydrogenase to form a reaction solution having a total amount of 500 μl. The reaction solution was incubated at 37° C. for 10 minutes and 4-hold amount of cold acetonitrile was added thereto to terminate the reaction. Then, the reaction solution was centrifuged (5000 g×10 minutes×4° C.), and the supernatant was collected to measure a production amount of a metabolized product by LC/MS/MS.

The next series concerns the target T3, CYP2C9 (Homo sapiens, UniProt P11712).
T3 construct: human liver microsome with a protein concentration of 0.1 mg protein/mL; from tissue; host or cells: human liver microsomes
Briefly: Test of inhibition of cytochrome P450 (2C9) enzyme. The class given is in vitro ADME. The following applies: human liver microsome, sulfaphenazole 10 μM, test compound 0.21 to 50 μM, 37° C. 10 minutes. As for the experimental part: (5) Test of Inhibition of Cytochrome P450 (2C9) Enzyme
as §1, with “sulfaphenazole (10” for “midazolam (2.5”, “[…].” for “500 μl.”
(In general: Microsomes from liver hold many membrane-bound enzymes, among them those of drug oxidation.)

The values that follow come from patent US9586905B2, “Benzoazepine derivative and medical use thereof” (SANWA KAGAKU KENKYUSHO CO., LTD., priority 2012, dated 2017).

T3 sequence (P11712 whole entry): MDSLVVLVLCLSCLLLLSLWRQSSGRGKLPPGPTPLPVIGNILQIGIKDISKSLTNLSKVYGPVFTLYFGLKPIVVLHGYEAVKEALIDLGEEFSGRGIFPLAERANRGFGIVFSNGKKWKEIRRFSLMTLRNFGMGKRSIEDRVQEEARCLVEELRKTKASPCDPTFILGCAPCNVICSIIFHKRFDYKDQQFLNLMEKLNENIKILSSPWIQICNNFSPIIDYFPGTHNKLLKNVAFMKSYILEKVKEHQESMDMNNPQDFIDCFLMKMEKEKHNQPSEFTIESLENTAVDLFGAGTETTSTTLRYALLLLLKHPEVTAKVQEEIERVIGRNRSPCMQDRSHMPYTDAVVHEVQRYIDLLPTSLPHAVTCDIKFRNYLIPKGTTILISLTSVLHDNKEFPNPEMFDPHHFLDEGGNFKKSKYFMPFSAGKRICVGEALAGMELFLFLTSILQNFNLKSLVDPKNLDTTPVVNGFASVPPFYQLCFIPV
T1 sequence (P30518 whole entry, the tested form may be a part): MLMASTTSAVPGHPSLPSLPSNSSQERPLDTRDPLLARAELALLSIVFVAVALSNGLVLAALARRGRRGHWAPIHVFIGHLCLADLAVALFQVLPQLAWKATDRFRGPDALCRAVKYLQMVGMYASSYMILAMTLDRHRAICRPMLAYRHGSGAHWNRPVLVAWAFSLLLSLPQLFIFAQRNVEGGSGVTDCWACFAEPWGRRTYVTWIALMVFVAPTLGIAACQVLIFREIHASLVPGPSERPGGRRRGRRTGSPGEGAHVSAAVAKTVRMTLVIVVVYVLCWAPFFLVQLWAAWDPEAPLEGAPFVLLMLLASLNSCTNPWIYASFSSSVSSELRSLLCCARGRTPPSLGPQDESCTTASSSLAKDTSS

One may read the EC50 as the concentration at which the effect is half-maximal. Low readings indicate greater potency, high ones weaker potency. For orientation: Emax means the maximal effect, on the per cent scale that the assay sets. The AUC is concentration integrated over time. The low end stands for less exposure, the high end for more exposure. For orientation: IC50 means the concentration at which inhibition is half-maximal. Read a high IC50 as lower potency. In the case of `Cc1ccn(-c2ccc(C(=O)N3CCC(C)(C(=O)NC(C)CO)Cc4ccccc43)c(Cl)c2)n1` (single isomer, unassigned) [Example 72], on human V2 receptor, a half-maximal response (EC50) required 2.1 nM and the Emax is 101%. In addition, in the series “Rat PK test”, the AUC was determined as 430 ng·h/mL, the Vd was 0.96 L/kg and the clearance was 19.3 mL/min/kg. Also, the IC50 against CYP3A4 is > 50000 nM. Besides, the IC50 against CYP2C9 was 46800 nM.
On human V2 receptor, `Cc1ccn(-c2ccc(C(=O)N3CCC(C)(C(=O)NC(C)CO)Cc4ccccc43)c(C(F)(F)F)c2)n1` (single isomer, unassigned) [Example 89] returned an EC50 of 1.4 nM and an Emax of 102%. Also, in “Rat PK test”, the AUC was found to be 371 ng·h/mL, the Vd was 1.23 L/kg and the clearance is 22.5 mL/min/kg. Besides, the half-inhibitory concentration (IC50) against CYP3A4 was > 50000 nM. The compound also gave an IC50 against CYP2C9 of 40200 nM.
On human V2 receptor, `CC(NC(=O)C1(C)CCN(C(=O)c2ccc(N3CCCC3)cc2C(F)(F)F)c2ccccc2C1)C(N)=O` (single isomer, unassigned) [Example 90] gave a concentration giving a half-maximal response (EC50) of 0.39 nM and an Emax of 101%. Further, in the series “Rat PK test”, the AUC turned out to be 613 ng·h/mL, the Vd came out at 1.08 L/kg and the clearance was 13.6 mL/min/kg.
With `C[C@@H]1CN(C(=O)c2ccc(-n3cccn3)cc2Cl)c2ccccc2CN1C(=O)NCCO` [comparative compound 1, N-(2-hydroxyethyl)-(R)-1-(2-chloro-4-pyrazol-1-ylbenzoyl)-3-methyl-1,2,3,5-tetrahydro-benzo[e]-1,4-diazepine-4-carboxamide, reference compound], in the series “Rat PK test”, the AUC came to 176 ng·h/mL, the Vd came to 4.72 L/kg and the clearance was 47.8 mL/min/kg.
With `CC(C)NC(=O)C[C@H]1CCCN(C(=O)c2ccc(N3CCCC3)cc2Cl)c2ccccc21` [comparative compound 2, 2-[(5R)-1-(2-chloro-4-pyrrolidine-1-ylbenzoyl)-2,3,4,5-tetrahydrobenzoazepine-5-yl]-N-isopropylacetoamide, reference compound], the IC50 worked out at 400 nM against CYP3A4 and 200 nM against CYP2C9.
